Consider three molecules from patent publication US20240299400A1, “Transcription Factor GLI1 Inhibitors and Uses Thereof” (University of Connecticut, priority 2023, published 2024).

One experiment concerns GLI2 protein expression. The experiment can be described thus: Western blot GLI2 protein expression in ASZ001 cells. Format: cell-based, murine. The note with it: 25 μM. As to the method:
(§1) ASZ001 cells were plated as described above and treated with drugs or vehicle control. Following incubation, cells were washed with chilled PBS and lysed with RIPA buffer containing […] PMSF protease inhibitor (Thermo Scientific #26978). Supernatant was collected following 15 min centrifugation at 12,000 rpm and 4° C. Protein concentrations from cell extracts were determined through the BCA kit (Pierce #23228) per the manufacturer's instructions. Proteins from either cell lysate or cell-free biochemical assay were then loaded on 12% SDS-PAGE. Following electrophoresis, proteins were transferred onto nitrocellulose membrane at 100 V for 120 min at 4° C. On a clean tray with constant gentle shaking, the membrane was sequentially submerged in 5% BSA for 1 h, and incubated with the primary antibody indicated overnight at 4° C. After washes with TBST, the appropriate secondary antibody was added to the tray for a 2 h incubation at RT. Chemiluminescent detection on film was visualized using ECL reagents (BioRad #1705060) and subsequently quantitated using Image J (http://imagej.nih.gov). Primary antibodies were used at 1:2000 dilution and are as follows: GLI1 (#MA5-32553); Gli2 (#PA5-79314); β-Actin (#PA1-16889). Secondary antibody (Goat anti-Rabbit, #32460) was used at a 1:5000 dilution. All antibodies were purchased from Invitrogen.
On the technique in general: Immunoblotting shows a protein as a band on a membrane.

A further experiment concerns the target T1, EGFR (Homo sapiens, UniProt P00533).
T1 construct: purchased ThermoFisher Scientific (Madison, WI, USA), contract service
The experiment can be described thus: ZLyte kinase assay, EGFR. Format: biochemical. Conditions: average of three replicates. Here is the method: (§2) Kinase screening experiments. Kinase inhibition/binding experiments were performed by ThermoFisher Scientific (Madison, WI, USA) as a contract service, utilizing their default protocols [G. Yernale, A comprehensive review on the biological interest of quinoline and its derivatives. Bioorg. Med. Chem. 32 (2021) 115973]. Briefly, for ZLyte assay, compound in DMSO (100 nL), kinase buffer (2.4 μL), peptide/kinase mixture (5 μL), and ATP solution (2.5 μL) were mixed in a black 384-well plate. Following a 30 s plate shake to mix reagents, the kinase assay mixture was incubated at RT for 60 min. Following addition of the development reagent solution to each well, another 60 min incubation was performed at RT for reaction development. Fluorescent signal was recorded and subsequently analyzed.

A further experiment concerns GLI1 protein levels. Description: Western blot GLI1 protein expression in ASZ001 cells. It is filed as cell-based, murine. Conditions: 10 and 25 μM. As to the method:
as §1

The target in another experiment is T2, PIK3C2A (Homo sapiens, UniProt O00443).
T2 construct: purchased ThermoFisher Scientific (Madison, WI, USA), contract service
The experiment can be described thus: Adapta kinase assay, PIK3C2A. It is filed as biochemical. The note with it: average of three replicates. As to the method: as §2
For the Adapta assay, compounds in DMSO (100 nL), 30 mM HEPES buffer (2.4 μL), substrate/kinase mixture (5 μL), and ATP solution (2.5 μL) were mixed in a white 384-well plate. Following a 30 s plate shake to mix the reagents and a 1 min centrifuge at 1000 g, the kinase assay mixture was incubated at RT for 60 min. Following addition of the detection mix (5 μL) to each well, 30 s plate shaking, and 1 min centrifuge at 1000 g, another 60 min incubation was performed at RT for equilibration. Fluorescent signals were recorded and subsequently analyzed.

T2 sequence (O00443 whole entry): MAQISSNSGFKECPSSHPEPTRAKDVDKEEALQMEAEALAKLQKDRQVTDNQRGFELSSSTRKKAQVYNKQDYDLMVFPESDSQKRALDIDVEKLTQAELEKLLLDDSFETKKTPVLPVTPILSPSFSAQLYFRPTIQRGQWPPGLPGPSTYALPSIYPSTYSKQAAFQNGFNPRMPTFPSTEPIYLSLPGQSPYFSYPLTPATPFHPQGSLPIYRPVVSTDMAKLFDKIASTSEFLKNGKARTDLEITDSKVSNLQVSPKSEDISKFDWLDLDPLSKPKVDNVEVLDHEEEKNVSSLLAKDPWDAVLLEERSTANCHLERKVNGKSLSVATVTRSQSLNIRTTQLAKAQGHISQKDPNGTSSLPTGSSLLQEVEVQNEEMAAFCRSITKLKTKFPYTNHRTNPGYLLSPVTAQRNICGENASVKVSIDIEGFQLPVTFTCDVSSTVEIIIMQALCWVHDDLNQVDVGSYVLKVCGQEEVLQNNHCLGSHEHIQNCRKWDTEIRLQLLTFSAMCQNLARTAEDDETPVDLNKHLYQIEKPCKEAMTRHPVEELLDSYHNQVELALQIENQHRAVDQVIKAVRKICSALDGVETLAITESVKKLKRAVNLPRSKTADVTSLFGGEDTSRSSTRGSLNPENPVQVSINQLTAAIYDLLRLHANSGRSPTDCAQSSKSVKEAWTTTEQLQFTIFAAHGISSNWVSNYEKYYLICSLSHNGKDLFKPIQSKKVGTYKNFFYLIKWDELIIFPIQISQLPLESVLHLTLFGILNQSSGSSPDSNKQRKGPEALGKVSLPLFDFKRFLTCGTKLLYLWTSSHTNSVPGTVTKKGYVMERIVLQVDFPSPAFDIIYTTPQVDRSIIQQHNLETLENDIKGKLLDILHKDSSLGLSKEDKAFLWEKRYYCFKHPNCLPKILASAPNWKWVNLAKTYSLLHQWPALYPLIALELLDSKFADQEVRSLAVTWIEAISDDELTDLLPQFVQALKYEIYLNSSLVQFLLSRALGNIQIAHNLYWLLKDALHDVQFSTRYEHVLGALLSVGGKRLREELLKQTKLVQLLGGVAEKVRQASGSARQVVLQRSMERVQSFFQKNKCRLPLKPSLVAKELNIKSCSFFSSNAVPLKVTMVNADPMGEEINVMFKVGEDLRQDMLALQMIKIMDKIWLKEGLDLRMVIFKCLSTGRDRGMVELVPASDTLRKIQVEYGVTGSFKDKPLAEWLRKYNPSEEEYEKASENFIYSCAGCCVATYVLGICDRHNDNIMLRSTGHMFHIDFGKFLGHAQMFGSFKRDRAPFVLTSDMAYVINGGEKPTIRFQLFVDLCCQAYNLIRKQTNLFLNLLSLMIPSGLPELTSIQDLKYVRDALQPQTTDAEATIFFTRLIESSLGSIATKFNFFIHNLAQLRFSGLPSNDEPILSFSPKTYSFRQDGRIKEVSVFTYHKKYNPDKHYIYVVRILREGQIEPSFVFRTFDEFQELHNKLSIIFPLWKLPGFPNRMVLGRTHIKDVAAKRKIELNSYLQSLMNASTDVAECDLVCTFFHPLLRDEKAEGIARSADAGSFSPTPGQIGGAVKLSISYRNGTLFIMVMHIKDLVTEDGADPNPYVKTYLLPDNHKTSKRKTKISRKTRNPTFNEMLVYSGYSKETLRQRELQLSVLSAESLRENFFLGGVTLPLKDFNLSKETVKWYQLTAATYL
T1 sequence (P00533 25-1210): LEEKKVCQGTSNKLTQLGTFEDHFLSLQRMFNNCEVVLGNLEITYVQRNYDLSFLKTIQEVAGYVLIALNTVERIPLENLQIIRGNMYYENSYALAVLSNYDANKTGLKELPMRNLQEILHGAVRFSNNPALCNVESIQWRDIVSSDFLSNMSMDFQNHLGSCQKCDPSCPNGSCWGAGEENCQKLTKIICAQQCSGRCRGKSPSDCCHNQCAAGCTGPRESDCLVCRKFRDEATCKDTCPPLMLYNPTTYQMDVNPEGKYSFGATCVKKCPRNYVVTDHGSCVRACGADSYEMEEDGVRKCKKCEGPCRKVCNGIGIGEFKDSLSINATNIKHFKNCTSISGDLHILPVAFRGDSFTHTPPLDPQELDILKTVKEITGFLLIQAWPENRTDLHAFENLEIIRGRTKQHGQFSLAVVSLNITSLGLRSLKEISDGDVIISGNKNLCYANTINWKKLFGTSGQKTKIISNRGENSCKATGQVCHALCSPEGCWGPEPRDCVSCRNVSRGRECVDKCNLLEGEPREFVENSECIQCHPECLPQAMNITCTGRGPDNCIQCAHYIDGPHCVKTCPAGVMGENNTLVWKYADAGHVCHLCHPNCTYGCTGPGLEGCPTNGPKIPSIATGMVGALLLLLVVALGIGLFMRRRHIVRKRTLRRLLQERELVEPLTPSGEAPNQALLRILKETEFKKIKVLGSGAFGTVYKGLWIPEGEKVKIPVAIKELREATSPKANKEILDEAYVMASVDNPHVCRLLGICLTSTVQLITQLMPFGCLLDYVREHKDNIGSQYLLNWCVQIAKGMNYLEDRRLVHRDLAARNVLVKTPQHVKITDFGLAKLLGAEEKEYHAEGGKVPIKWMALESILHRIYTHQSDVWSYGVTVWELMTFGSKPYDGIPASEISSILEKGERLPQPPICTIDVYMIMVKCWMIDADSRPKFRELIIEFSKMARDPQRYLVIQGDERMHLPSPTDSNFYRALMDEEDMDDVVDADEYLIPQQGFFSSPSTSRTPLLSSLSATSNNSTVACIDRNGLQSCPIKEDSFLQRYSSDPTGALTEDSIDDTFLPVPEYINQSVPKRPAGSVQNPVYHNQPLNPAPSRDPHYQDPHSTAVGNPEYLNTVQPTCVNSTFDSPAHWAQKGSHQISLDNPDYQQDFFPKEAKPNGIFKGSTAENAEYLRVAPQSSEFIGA

For `Cc1ccc2ccc(C(Nc3ccccn3)c3ccncc3)c(O)c2n1` (stereo not shown) [Compound 39, 7-((Pyridin-4-yl)(pyridin-2-ylamino)methyl)-2-methylquinolin-8-ol], the “GLI2 protein expression (in words)” value in the experiment on GLI2 protein expression was “significantly suppressed”. In addition, the results for the inhibition at 1 µM against EGFR and against PIK3C2A were 2% and -1%, respectively. For the same molecule, the “GLI1 protein levels (in words)” value in the experiment on GLI1 protein levels is “significantly reduced”.

As to `Cc1ccc2ccc(C(Nc3ccccn3)c3ccc(N4CCCC4=O)cc3)c(O)c2n1` (stereo not shown) [Compound 48, 7-((4-(2-Oxopyrrolidin-1-yl)phenyl)(pyridin-2-ylamino)methyl)-2-methylquinolin-8-ol], the “GLI2 protein expression (in words)” value in the experiment with GLI2 protein expression was “significantly suppressed”. The values for the inhibition at 1 µM on EGFR and against PIK3C2A were 2% and 0%, respectively. Moreover, the “GLI1 protein levels (in words)” value in the experiment on GLI1 protein levels is recorded as “significantly reduced”.

With `CCN(CC)c1ccc(C(Nc2ccccn2)c2ccc3ccc(C)nc3c2OC)cc1` (stereo not shown) [Compound 20, N-((4-Diethylaminophenyl)(8-methoxy-2-methylquinolin-7-yl)methyl)pyridin-2-amine], the inhibition – broadly, the relative decrease from the control value, in per cent – at 1 µM was -2% at EGFR and 3% against PIK3C2A.
